pIC50, pKd: −log10 of the molar value.
Tests used:
[1] = target: T1, Vascular endothelial growth factor receptor 2 (Homo sapiens, UniProt P35968); test: Inhibition of human KDR assessed as residual activity at 10 uM using poly[Glu:Tyr] (4:1) as substrate preincubated for 20 mins followed by [gamma-33P]-ATP addition and measured after 120 mins by Hotspot assay relative to control
[2] = target: Mitogen-activated protein kinase 3 (Homo sapiens) (UniProt P27361); test: Inhibition of human ERK1 assessed as residual activity at 10 uM using MBP as substrate preincubated for 20 mins followed by [gamma-33P]-ATP addition and measured after 120 mins by Hotspot assay relative to control
[3] = target: Serine/threonine-protein kinase Nek2 (Homo sapiens, UniProt P51955); test: Inhibition of human NEK2 using MBP as substrate preincubated for 20 mins followed by [gamma-33P]-ATP addition and measured after 120 mins by Hotspot assay
MV4-11 [4] = test: Induction of apoptosis in human MV4-11 cells assessed as necrotic cells at 0.2 uM after 24 hrs by Annexin V-FITC/propidium iodide staining based flow cytometric analysis (reference value: 0%); type: functional
[5] = target: Tyrosine-protein kinase ABL1 (Homo sapiens, UniProt P00519, F317I); test: Binding affinity to human phosphorylated ABL1 F317I mutant (S229 to K512 residues) expressed in mammalian expression system after 60 mins by Kinomescan method
MV4-11 [6] = test: Induction of apoptosis in human MV4-11 cells assessed as late apoptotic cells at 0.05 uM after 24 hrs by Annexin V-FITC/propidium iodide staining based flow cytometric analysis (reference value: 1.42%); type: functional
MV4-11 [7] = test: Induction of apoptosis in human MV4-11 cells after 24 hrs by Annexin V-FITC/propidium iodide staining based flow cytometric analysis; type: functional, cell-based
[8] = target: T1, Vascular endothelial growth factor receptor 2; test: Inhibition of human KDR using poly[Glu:Tyr] (4:1) as substrate preincubated for 20 mins followed by [gamma-33P]-ATP addition and measured after 120 mins by Hotspot assay
[9] = target: CDK1/Cyclin A (Homo sapiens) (UniProt P06493+P20248); test: Inhibition of human CDK1/Cyclin-A assessed as residual activity at 10 uM using Histone H1 as substrate preincubated for 20 mins followed by [gamma-33P]-ATP addition and measured after 120 mins by Hotspot assay relative to control; type: protein-complex assay
[10] = target: Tyrosine-protein kinase ABL1 (Homo sapiens, UniProt P00519, T315I); test: Binding affinity to human non-phosphorylated ABL1 T315I mutant (S229 to K512 residues) expressed in mammalian expression system after 60 mins by Kinomescan method
[11] = target: Calcium/calmodulin-dependent protein kinase type 1 (Homo sapiens) (UniProt Q14012); test: Inhibition of human CAMK1A assessed as residual activity at 10 uM using KKALRRQETVDAL as substrate preincubated for 20 mins followed by [gamma-33P]-ATP addition and measured after 120 mins by Hotspot assay relative to control
[12] = target: Serine/threonine-protein kinase pim-1 (Homo sapiens) (UniProt P11309); test: Inhibition of human PIM1 assessed as residual activity at 10 uM using KKRNRTLTK as substrate preincubated for 20 mins followed by [gamma-33P]-ATP addition and measured after 120 mins by Hotspot assay relative to control
[13] = target: Proto-oncogene tyrosine-protein kinase Src (Homo sapiens, UniProt P12931); test: Inhibition of human c-SRC assessed as residual activity at 10 uM using poly[Glu:Tyr] (4:1) as substrate preincubated for 20 mins followed by [gamma-33P]-ATP addition and measured after 120 mins by Hotspot assay relative to control
[14] = target: Platelet-derived growth factor receptor alpha (Homo sapiens, UniProt P16234); test: Inhibition of human PDGFRalpha assessed as residual activity at 10 uM using poly[Glu:Tyr] (4:1) as substrate preincubated for 20 mins followed by [gamma-33P]-ATP addition and measured after 120 mins by Hotspot assay relative to control
[15] = target: Serine/threonine-protein kinase Chk1 (Homo sapiens) (UniProt O14757); test: Inhibition of human CHK1 assessed as residual activity at 10 uM using KKKVSRSGLYRSPSMPENLNRPR as substrate preincubated for 20 mins followed by [gamma-33P]-ATP addition and measured after 120 mins by Hotspot assay relative to control
MV4-11 [16] = test: Induction of apoptosis in human MV4-11 cells assessed as necrotic cells at 0.1 uM after 24 hrs by Annexin V-FITC/propidium iodide staining based flow cytometric analysis (reference value: 0%); type: functional
[17] = Half life in rat liver microsomes at 1 uM after 5 to 60 mins in presence of NADPH by LC-MS/MS analysis; type: ADME, Microsome
[18] = Intrinsic clearance in human liver microsomes assessed per mg protein at 1 uM after 5 to 60 mins in presence of NADPH by LC-MS/MS analysis; type: ADME, Microsome; conditions: read-out: CLH
[19] = target: Tyrosine-protein kinase JAK2 (Homo sapiens) (UniProt O60674); test: Inhibition of human JAK2 assessed as residual activity at 10 uM using poly[Glu:Tyr] (4:1) as substrate preincubated for 20 mins followed by [gamma-33P]-ATP addition and measured after 120 mins by Hotspot assay relative to control
[20] = target: Serine/threonine-protein kinase B-raf (Homo sapiens) (UniProt P15056); test: Inhibition of human BRAF assessed as residual activity at 10 uM using MEK1 (K97R) as substrate preincubated for 20 mins followed by [gamma-33P]-ATP addition and measured after 120 mins by Hotspot assay relative to control
MV4-11 [21] = test: Induction of apoptosis in human MV4-11 cells assessed as early apoptotic cells at 0.5 uM after 24 hrs by Annexin V-FITC/propidium iodide staining based flow cytometric analysis (reference value: 3.39%); type: functional
MV4-11 [22] = test: Induction of apoptosis in human MV4-11 cells assessed as viable cells at 0.02 uM after 24 hrs by Annexin V-FITC/propidium iodide staining based flow cytometric analysis (reference value: 95.19%); type: functional; conditions: MV4-11, 24 h, read-out: Activity
[23] = target: CDK9/cyclin T1 (Homo sapiens) (UniProt O60563+P50750); test: Inhibition of human CDK9/cyclin-T1 assessed as residual activity at 10 uM using KTFCGTPEYLAPEVRREPRILSEEEQEMFRDFDYIADWC as substrate preincubated for 20 mins followed by [gamma-33P]-ATP addition and measured after 120 mins by Hotspot assay relative to control; type: protein-complex assay
[24] = target: Tyrosine-protein kinase ABL1 (Homo sapiens, UniProt P00519); test: Inhibition of human ABL1 assessed as residual activity at 10 uM using EAIYAAPFAKKK as substrate preincubated for 20 mins followed by [gamma-33P]-ATP addition and measured after 120 mins by Hotspot assay relative to control
[25] = target: Mitogen-activated protein kinase 14 (Homo sapiens) (UniProt Q16539); test: Inhibition of human p38alpha assessed as residual activity at 10 uM using MBP as substrate preincubated for 20 mins followed by [gamma-33P]-ATP addition and measured after 120 mins by Hotspot assay relative to control
Chain of Mitogen-activated protein kinase 14 (Homo sapiens) (Q16539 whole entry): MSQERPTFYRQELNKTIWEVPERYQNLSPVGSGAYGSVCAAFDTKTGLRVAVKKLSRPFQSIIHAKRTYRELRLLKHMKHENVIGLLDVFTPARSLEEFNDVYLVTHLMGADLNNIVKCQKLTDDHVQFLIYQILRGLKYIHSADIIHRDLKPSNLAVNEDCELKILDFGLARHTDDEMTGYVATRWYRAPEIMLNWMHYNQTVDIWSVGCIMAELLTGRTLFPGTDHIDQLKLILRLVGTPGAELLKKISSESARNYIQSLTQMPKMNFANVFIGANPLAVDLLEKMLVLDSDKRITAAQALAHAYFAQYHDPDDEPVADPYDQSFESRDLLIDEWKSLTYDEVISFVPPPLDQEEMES

T1 sequence (P35968 whole entry): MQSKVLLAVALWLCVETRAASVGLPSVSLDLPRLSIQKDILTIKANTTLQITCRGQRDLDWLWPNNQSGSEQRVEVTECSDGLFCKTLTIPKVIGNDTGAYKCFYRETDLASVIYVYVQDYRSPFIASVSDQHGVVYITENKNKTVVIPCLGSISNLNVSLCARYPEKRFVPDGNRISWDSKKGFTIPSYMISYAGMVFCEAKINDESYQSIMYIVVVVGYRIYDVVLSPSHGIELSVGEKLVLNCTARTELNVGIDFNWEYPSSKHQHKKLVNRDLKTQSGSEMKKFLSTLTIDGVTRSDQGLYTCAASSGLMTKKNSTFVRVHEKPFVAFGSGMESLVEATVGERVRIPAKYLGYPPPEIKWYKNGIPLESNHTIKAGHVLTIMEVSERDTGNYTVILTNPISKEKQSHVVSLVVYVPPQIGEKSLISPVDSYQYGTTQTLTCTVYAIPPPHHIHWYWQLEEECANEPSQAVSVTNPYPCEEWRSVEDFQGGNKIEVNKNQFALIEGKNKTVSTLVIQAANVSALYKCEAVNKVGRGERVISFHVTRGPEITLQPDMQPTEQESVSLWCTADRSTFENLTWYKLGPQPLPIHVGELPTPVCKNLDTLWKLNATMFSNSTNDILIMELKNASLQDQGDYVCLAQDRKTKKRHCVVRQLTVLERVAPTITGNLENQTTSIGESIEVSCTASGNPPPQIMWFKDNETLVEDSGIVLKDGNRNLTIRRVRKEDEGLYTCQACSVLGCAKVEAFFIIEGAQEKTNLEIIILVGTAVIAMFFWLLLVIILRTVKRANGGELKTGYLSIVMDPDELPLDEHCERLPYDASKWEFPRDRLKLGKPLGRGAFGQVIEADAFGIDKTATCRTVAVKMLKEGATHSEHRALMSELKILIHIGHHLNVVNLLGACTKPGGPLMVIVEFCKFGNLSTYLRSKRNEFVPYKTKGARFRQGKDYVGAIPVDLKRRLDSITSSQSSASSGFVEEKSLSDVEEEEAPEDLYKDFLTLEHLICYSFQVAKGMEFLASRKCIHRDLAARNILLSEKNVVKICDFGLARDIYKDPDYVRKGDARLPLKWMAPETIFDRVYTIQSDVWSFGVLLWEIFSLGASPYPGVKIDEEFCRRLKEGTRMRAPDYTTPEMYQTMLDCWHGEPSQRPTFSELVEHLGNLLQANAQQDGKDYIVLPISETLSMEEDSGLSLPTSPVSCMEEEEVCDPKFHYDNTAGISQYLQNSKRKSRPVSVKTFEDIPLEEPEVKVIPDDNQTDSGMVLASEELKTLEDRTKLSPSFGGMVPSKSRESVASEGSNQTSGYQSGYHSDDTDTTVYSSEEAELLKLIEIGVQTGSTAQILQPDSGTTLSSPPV
Chain of Tyrosine-protein kinase JAK2 (Homo sapiens) (O60674 whole entry): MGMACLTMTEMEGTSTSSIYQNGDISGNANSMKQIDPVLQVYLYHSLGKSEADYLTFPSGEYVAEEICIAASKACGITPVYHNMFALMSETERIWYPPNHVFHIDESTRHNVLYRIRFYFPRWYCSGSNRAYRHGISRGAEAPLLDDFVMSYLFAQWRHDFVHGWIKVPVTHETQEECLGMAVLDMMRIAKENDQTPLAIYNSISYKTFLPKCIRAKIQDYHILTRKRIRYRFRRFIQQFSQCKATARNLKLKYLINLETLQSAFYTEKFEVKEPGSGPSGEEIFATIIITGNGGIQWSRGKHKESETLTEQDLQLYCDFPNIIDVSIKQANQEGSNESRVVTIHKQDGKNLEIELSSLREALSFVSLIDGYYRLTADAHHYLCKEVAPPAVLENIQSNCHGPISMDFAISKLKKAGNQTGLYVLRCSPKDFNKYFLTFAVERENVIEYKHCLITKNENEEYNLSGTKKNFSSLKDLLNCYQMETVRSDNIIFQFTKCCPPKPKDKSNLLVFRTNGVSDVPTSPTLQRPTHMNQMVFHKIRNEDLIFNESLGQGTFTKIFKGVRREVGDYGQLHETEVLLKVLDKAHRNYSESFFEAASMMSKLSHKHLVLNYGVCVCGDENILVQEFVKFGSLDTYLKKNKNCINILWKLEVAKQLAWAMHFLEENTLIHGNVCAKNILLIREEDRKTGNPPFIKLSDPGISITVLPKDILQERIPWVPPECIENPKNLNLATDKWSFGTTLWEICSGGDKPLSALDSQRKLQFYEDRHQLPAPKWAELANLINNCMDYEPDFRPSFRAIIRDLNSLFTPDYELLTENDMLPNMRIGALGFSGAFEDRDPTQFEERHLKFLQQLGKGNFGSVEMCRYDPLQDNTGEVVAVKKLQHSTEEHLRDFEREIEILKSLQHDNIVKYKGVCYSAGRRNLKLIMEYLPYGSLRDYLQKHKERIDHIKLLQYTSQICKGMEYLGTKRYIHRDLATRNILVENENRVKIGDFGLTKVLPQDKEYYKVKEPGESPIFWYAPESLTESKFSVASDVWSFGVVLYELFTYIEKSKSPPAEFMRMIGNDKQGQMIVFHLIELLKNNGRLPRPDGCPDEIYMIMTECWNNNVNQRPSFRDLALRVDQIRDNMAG
Chain of Serine/threonine-protein kinase pim-1 (Homo sapiens) (P11309 whole entry, looked up): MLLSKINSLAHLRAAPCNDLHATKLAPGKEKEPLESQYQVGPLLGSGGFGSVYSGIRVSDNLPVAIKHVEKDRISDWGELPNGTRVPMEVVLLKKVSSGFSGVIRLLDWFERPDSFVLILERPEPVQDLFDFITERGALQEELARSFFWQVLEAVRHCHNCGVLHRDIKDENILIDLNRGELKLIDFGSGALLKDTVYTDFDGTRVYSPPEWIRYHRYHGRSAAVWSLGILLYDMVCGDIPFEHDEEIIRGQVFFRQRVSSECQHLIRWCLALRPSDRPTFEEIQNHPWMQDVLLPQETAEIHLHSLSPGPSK
Chain of Platelet-derived growth factor receptor alpha (P16234 whole entry): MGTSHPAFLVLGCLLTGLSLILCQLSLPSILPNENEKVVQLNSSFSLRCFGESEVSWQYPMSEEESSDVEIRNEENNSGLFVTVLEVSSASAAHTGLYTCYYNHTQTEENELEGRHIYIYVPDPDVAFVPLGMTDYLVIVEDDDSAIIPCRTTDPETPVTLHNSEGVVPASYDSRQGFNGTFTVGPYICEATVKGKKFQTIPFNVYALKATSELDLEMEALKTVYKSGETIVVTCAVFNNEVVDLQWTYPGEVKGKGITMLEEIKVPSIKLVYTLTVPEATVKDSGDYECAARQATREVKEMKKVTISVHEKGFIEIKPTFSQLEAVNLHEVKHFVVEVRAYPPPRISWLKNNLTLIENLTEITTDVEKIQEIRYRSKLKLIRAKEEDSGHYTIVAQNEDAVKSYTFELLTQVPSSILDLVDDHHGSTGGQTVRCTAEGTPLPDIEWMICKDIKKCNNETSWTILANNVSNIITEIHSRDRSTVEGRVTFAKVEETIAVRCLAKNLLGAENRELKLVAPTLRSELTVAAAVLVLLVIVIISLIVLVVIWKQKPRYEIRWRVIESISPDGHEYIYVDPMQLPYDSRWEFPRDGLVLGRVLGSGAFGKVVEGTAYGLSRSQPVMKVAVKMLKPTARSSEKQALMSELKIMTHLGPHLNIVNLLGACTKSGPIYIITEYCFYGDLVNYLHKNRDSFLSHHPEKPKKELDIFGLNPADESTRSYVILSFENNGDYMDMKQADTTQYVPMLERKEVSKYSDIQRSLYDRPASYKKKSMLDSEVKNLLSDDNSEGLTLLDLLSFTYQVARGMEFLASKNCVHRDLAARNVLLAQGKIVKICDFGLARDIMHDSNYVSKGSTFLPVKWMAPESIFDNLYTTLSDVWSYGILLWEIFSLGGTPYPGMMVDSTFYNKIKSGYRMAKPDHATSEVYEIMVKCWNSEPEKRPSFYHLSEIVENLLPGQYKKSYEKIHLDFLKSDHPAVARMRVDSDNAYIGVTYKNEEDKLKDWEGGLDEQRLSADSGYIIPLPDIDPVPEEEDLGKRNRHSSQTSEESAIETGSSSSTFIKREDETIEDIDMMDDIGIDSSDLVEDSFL
Chain of Mitogen-activated protein kinase 3 (Homo sapiens) (P27361 whole entry): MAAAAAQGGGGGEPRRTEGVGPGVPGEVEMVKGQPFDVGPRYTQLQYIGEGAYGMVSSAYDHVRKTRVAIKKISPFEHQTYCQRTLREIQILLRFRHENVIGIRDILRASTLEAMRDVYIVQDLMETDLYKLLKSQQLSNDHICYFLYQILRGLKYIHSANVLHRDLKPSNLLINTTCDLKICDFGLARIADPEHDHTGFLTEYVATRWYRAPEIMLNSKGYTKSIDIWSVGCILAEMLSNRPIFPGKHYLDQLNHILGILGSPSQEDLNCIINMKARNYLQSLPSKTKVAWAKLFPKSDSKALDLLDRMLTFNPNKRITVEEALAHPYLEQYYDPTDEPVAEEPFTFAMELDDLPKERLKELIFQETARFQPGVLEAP
Chain of Calcium/calmodulin-dependent protein kinase type 1 (Homo sapiens) (Q14012 whole entry, looked up): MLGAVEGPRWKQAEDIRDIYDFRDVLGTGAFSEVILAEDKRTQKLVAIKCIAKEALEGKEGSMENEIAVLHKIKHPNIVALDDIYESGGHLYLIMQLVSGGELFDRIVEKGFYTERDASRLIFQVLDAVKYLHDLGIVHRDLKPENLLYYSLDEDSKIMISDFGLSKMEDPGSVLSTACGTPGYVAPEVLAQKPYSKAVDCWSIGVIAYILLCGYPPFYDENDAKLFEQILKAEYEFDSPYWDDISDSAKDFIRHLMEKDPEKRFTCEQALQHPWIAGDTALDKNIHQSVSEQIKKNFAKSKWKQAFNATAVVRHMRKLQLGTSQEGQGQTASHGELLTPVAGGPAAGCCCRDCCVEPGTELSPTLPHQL

Q: With `CN1CCC(Nc2ccc(C(=O)Nc3cc(-c4cc(C#N)cs4)n[nH]3)cc2)CC1` as the compound, how does the Activity [1] read?
A: The Activity was 34%.

Q: What about the Activity [2] of the same compound?
A: The Activity was 87.6%.

Q: What about the pIC50 [3] of the same compound?
A: Its pIC50 is 5.68.

Q: And the Activity (MV4-11 [4])?
A: Its Activity is 4.1%.

Q: What about the pKd [5] of the same compound?
A: Its pKd is < 5.00.

Q: What about the Activity (MV4-11 [6]) of the same compound?
A: The Activity was 14.8%.

Q: And the Activity (MV4-11 [7])?
A: Its Activity is “Dose-dependent effect”.

Q: And the pIC50 [8]?
A: The pIC50 was 5.20.

Q: What about the Activity [9] of the same compound?
A: The Activity was 74.5%.

Q: What about the pKd [10] of the same compound?
A: Its pKd is 6.24.

Q: What about the Activity [11] of the same compound?
A: The Activity was 48.5%.

Q: What about the Activity [12] of the same compound?
A: Its Activity is 5.11%.

Q: What about the Activity [13] of the same compound?
A: Its Activity is 17.9%.

Q: And the Activity [14]?
A: Its Activity is 30.2%.

Q: What about the Activity [15] of the same compound?
A: The Activity was 11.8%.

Q: What about the Activity (MV4-11 [16]) of the same compound?
A: Its Activity is 3%.

Q: What about the half-life at 1 µM [17] of the same compound?
A: Its half-life at 1 µM is 8.1 min.

Q: What about the microsomal CLint at 1 µM [18] of the same compound?
A: The microsomal CLint at 1 µM was 22.4 µL/min/mg.

Q: What about the Activity [19] of the same compound?
A: Its Activity is 80.7%.

Q: What about the Activity [20] of the same compound?
A: The Activity was 67.7%.

Q: What about the Activity (MV4-11 [21]) of the same compound?
A: The Activity was 28.65%.

Q: What about the viability at 0.02 µM (MV4-11 [22]) of the same compound?
A: The viability at 0.02 µM was 68.6%.

Q: What about the Activity [23] of the same compound?
A: Its Activity is 68.7%.

Q: And the Activity [24]?
A: Its Activity is 8.32%.

Q: What about the Activity [25] of the same compound?
A: Its Activity is 98.4%.

From ChEMBL document CHEMBL4330071 (Eur J Med Chem, 2019)
